Read-outs that look alike come from different tables or passages of the source.

Consider 9 compounds from patent US4701406A, “Assay for the detection of epigenetic toxic (non-genotoxic) substances” (priority 1984, dated 1987).

Series [1] concerns cytoskeletal elements (microtubules and microfilaments) of Swiss 3T3 cells.
In the next series the test system is genetic material. The following applies: presently used assays; cited from earlier work.
For series [2], the system named is cytoskeletal elements (microtubules) of quiescent 3T3 cells.
A further series has as its system skin. The following applies: cited from earlier work.
The conditions of series [3]: Table I; recognized by U.S. Department of Health and Human Services; cited from earlier work.
The test system of another series is tubulin. As to conditions: in vitro; cited from earlier work.

With `O=[As][O-].[Na+]` [As(III) as NaAsO2, NaAsO2], the “Cytoskeletal Perturbation” value in series [1] is “positive”.
`O=[N+]([O-])c1ccc(Cl)c([N+](=O)[O-])c1` [CDNB, 1-Chloro-2,4-dinitro-benzene]: the “identification by genotoxicity / mutagenicity assays” value with genetic material is “consistently failed to be identified”. For the same compound, the “Cytoskeletal Disruption” value in series [2] (5 × 10^-6 M, 2 hours, FIG. 2b) is “positive”. The “Cytoskeletal Perturbation” value in series [1] (5.0 × 10^-6 M, 2.0 hrs, FIG. 1g) is reported as “positive”. Also, in the series on skin, the allergic contact dermatitis entry is “severe allergic contact dermatitis”.
For the compound `O=S(=O)([O-])[O-].[Cd+2]` [Cd(II) as CdSO4, CdSO4], the “Cytoskeletal Perturbation” value in series [1] (2.5 × 10^-5 M, 3.0 hrs, FIG. 1c) is “positive”.
As for `O=S(=O)([O-])[O-].[Co+2]` [Co(II) as CoSO4, CoSO4], the “Cytoskeletal Perturbation” value in series [1] (4.0 × 10^-4 M, 17.0 hrs, FIG. 1f) was “positive”. Moreover, the “Health Hazardous Activity (carcinogen / promoter)” value in series [3] was “Carcinogen”.
As for `[K+].[K+].[O]=[Cr](=[O])([O-])[O][Cr](=[O])(=[O])[O-]` [Cr(VI) as K2 Cr2 O7, K2 Cr2 O7], in series [2] (1.2 × 10^-3 M, 3 hours, FIG. 2c), the “Cytoskeletal Disruption” value is “positive”. The “Cytoskeletal Perturbation” value in series [1] is reported as “positive”.
For the compound `O=[N+]([O-])c1ccc(F)c([N+](=O)[O-])c1` [FDNB, fluorodinitrobenzene], the allergic contact dermatitis result with skin was “severe allergic contact dermatitis”.
With `O=S(=O)([O-])[O-].[Ni+2]` [Ni(II) as NiSO4, NiSO4], the “Cytoskeletal Disruption” value in series [2] (1.5 × 10^-3 M, 3 hours, FIG. 2d) was “positive”. The “Cytoskeletal Perturbation” value in series [1] is reported as “positive”.
Turning to `Nc1ccc(N)cc1` [PPD, P--Phenylene-diamine], the “identification by genotoxicity / mutagenicity assays” value with genetic material is reported as “consistently failed to be identified”. In series [1] (5.0 × 10^-4 M, 3.5 hrs, FIG. 1h), the “Cytoskeletal Perturbation” value is listed as “positive”. Besides, the skin sensitization entry in the series with skin (human as well as animal studies) was “potent skin sensitizers”. For the same compound, in the series on skin (identified by skin patch test), the “Health Hazardous Activity (potent skin sensitizer)” value was “sensitizer”.
With `CC(=O)O[C@H]1C(=O)[C@@]2(C)[C@H]([C@H](OC(=O)c3ccccc3)[C@]3(O)C[C@H](OC(=O)[C@H](O)[C@@H](NC(=O)c4ccccc4)c4ccccc4)C(C)=C1C3(C)C)[C@]1(OC(C)=O)CO[C@@H]1C[C@@H]2O` [taxol], in series [2] (prior to or simultaneous treatment), the “effectiveness, taxol introduced prior to vs simultaneously with the epigenetic substances” value is given as “no discernible difference in effectiveness”. In addition, the “Cytoskeletal Disruption” value in series [2] (taxol alone, 12 × 10^-6 M, 2 hours, FIG. 2h) is “negative”. For the same compound, the tubulin polymerization entry with tubulin was “promote tubulin polymerization in vitro”.
